Assay results as given in article PMC7615311 (Science (New York, N.Y.), 2023).
pEC50, pKd: −log10 of the molar value. Each block holds one compound with its values, some of them ahead of it.

Legend:
A549 lung cancer cells = assay: decryptM phosphoproteome profiling in A549 cells; assay type: cell-based, human
SU-DHL-4 cells [1] = assay: FACS analysis of cytotoxicity; assay type: cell-based, human; conditions: SU-DHL-4, FACS
SU-DHL-4 cells [2] = assay type: cell-based, human; conditions: SU-DHL-4, live cell imaging
BT-474 cells = assay: decryptM phosphoproteome profiling in BT-474 cells; assay type: cell-based, human
SK-BR-3 cells = assay: decryptM phosphoproteome profiling in SK-BR-3 cells; assay type: cell-based, human
MDA-MB-175 cells = assay: decryptM phosphoproteome profiling in MDA-MB-175 cells; assay type: cell-based, human
cortactin (CTTN) = assay: decryptM, acetylation of HDAC6 substrate cortactin in HeLa cells; assay type: cell-based, human; conditions: within the tested dose range
HeLa cells [3] = assay: decryptM phosphoproteome profiling in HeLa cells; assay type: cell-based, human
HeLa cells [4] = assay: decryptM protein acetylation profiling in HeLa cells; assay type: cell-based, human
SNRNP40 = assay: decryptM, acetylation of SNRNP40 in HeLa cells; assay type: cell-based, human; conditions: read-out: EC50 of SNRNP40 acetylation site
CBP and p300 = assay: decryptM; assay type: cell-based, human; conditions: read-out: EC50 of inhibition of (auto-)acetylation sites on CBP and p300; HeLa
[5] = system: K562 chronic myelogenous leukemia cells; assay: decryptM phosphoproteome profiling in K562 cells; assay type: cell-based, human; conditions: for number of regulated phosphopeptides: K562, 30 min drug treatment
AKT1S1 = assay: decryptM, pT246 on AKT1S1 in SK-BR-3 cells; assay type: cell-based; conditions: Homo sapiens, SK-BR-3, read-out: potency of inhibition of pT246 on AKT1S1
SHC1 = assay: decryptM, pY427 on SHC1 in SK-BR-3 cells; assay type: cell-based; conditions: Homo sapiens, SK-BR-3, read-out: potency of inhibition of pY427 on SHC1
SK-BR-3 = assay: growth reduction, SK-BR-3; assay type: cell-based; conditions: Homo sapiens, SK-BR-3, read-out: reduced growth
BT-474 = assay: growth reduction, BT-474; assay type: cell-based; conditions: Homo sapiens, BT-474, read-out: reduced growth
MDA-MB-175 = assay: growth reduction, MDA-MB-175; assay type: cell-based; conditions: Homo sapiens, read-out: reduced growth
ATR = ATR (Homo sapiens, UniProt Q13535); assay: Kinobeads assay, ATR; assay type: binding
Sequence of ATR (Q13535 whole entry): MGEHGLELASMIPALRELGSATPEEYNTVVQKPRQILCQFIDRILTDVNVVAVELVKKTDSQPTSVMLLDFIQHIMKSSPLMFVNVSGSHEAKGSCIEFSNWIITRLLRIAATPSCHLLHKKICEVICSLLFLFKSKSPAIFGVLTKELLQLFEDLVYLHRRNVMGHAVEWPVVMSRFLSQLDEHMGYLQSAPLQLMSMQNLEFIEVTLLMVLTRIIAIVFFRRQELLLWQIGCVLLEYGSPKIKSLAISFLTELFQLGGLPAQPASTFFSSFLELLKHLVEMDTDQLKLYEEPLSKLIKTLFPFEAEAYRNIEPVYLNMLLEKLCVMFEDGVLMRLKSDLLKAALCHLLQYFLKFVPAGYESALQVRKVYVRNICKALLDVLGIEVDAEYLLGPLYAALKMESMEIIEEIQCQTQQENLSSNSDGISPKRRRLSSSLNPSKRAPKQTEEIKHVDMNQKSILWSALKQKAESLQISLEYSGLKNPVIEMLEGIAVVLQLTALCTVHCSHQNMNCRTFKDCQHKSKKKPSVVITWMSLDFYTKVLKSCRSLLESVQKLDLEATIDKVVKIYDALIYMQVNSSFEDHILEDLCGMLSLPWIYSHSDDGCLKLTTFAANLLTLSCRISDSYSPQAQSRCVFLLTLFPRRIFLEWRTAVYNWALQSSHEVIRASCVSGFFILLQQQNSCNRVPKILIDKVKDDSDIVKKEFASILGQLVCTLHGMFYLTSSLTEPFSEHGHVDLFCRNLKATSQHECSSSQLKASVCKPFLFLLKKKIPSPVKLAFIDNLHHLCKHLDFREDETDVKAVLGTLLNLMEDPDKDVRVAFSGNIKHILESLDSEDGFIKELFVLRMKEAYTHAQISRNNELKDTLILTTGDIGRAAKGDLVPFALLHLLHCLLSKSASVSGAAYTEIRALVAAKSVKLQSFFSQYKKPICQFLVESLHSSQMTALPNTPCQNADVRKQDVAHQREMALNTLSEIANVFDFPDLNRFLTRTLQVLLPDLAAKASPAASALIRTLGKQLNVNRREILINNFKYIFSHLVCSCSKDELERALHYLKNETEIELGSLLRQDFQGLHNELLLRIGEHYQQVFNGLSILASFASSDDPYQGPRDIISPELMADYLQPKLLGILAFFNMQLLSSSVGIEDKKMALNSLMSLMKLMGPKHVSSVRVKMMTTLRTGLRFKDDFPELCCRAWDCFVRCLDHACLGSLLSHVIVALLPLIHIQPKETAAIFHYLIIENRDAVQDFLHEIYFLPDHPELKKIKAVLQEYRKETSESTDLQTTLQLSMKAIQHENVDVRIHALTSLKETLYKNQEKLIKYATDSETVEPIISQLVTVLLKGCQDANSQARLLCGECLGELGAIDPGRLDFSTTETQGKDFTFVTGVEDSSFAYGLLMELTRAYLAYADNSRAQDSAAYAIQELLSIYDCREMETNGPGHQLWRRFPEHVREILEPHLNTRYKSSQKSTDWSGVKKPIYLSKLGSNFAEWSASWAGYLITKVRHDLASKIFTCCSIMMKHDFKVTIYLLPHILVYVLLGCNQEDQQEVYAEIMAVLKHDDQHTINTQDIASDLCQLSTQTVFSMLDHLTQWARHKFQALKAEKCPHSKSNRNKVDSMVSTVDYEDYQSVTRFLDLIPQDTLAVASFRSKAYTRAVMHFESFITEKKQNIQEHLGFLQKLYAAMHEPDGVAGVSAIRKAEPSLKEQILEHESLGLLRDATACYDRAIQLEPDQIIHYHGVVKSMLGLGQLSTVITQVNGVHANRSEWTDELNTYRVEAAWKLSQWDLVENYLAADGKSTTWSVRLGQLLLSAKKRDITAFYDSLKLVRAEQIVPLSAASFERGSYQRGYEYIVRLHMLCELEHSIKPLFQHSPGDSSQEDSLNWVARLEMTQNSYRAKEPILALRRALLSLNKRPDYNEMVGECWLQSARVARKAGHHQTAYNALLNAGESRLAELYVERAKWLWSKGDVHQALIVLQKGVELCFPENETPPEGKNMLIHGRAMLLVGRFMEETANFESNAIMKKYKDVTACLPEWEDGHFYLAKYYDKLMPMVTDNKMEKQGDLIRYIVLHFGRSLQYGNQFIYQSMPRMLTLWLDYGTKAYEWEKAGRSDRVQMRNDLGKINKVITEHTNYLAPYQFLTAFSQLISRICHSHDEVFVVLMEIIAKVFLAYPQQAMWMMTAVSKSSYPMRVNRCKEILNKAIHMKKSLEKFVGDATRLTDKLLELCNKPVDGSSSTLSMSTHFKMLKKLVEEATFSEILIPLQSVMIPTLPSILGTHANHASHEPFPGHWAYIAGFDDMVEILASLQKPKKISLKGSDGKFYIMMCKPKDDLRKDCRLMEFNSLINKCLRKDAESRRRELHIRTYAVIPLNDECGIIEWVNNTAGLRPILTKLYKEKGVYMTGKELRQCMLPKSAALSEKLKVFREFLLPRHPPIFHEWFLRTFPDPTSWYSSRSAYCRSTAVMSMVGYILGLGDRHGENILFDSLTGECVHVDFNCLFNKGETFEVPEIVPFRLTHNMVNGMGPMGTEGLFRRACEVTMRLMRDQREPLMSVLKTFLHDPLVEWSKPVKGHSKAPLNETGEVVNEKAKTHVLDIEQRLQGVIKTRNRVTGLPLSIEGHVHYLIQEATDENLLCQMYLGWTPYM

[6] = system: KYSE-520 esophageal squamous cell carcinoma cell line; assay: decryptM phosphoproteome profiling in KYSE-520 cells; assay type: cell-based, human; conditions: KYSE-520, 30 min
MKI67 = assay: decryptM, phosphorylation of MKI67 in SU-DHL-4; assay type: cell-based, human
SU-DHL-4 cells [7] = assay: two-dimensional decryptM phosphoproteome analysis in SU-DHL-4; assay type: cell-based, human; conditions: dose-response at eight time points between 0 min and 24 h
SYK = assay: decryptM, phosphorylation of SYK in SU-DHL-4; assay type: cell-based, human
ARH-77 cells = assay: two-dimensional decryptM phosphoproteome analysis in ARH-77; assay type: cell-based, human; conditions: dose-response at eight time points between 0 min and 24 h
[8] = system: SU-DHL-4 (B-cell lymphoma); assay: viability assay, SU-DHL-4; assay type: cell-based, human
[9] = system: ARH-77 plasma leukemia line; assay: viability assay, ARH-77; assay type: cell-based, human
[10] = system: Ramos (Burkitt's Lymphoma); assay: viability assay, Ramos; assay type: cell-based, human
RFTN1 = assay: decryptM, RFTN1 phosphorylation at S467 in SU-DHL-4; assay type: cell-based, human
Ramos cells = assay: two-dimensional decryptM phosphoproteome analysis in Ramos; assay type: cell-based, human; conditions: dose-response at eight time points between 0 min and 24 h

- phosphorylation of the AKT substrates AKT1S1 (T2469) and GSK3B (S9) (A549 lung cancer cells): reduced phosphorylation
Compound: NC1(c2ccc(-c3nc4ccn5c(=O)[nH]nc5c4cc3-c3ccccc3)cc2)CCC1 [MK-2206]
- ERK1 activity via phosphorylation at Y187 (A549 lung cancer cells): induced ERK1 activity

Compound: COc1cc(Nc2ncc(F)c(Nc3ccc4c(n3)N(COP(=O)(O)O)C(=O)C(C)(C)O4)n2)cc(OC)c1OC [fostamatinib]
- effect of combination on cytotoxic effect of RTX (SU-DHL-4 cells [1]): diminished the cytotoxic effect of RTX
- effect of inhibitor pre-treatment on RTX-mediated cytotoxicity (SU-DHL-4 cells [2]): clear reduction of RTX-mediated cytotoxicity

Compound: pertuzumab: breast cancer therapeutic antibody blocking signaling by preventing HER2-HER3 dimerization
- number of regulated phosphopeptides (BT-474 cells): ~ 150
- number of regulated phosphopeptides (SK-BR-3 cells): ~ 30
- number of regulated phosphopeptides (MDA-MB-175 cells): ~ 150

Compound: CC(=O)Nc1cccc(-n2c(=O)n(C3CC3)c(=O)c3c(Nc4ccc(I)cc4F)n(C)c(=O)c(C)c32)c1 [trametinib]
- effect of inhibitor pre-treatment on RTX-mediated cytotoxicity (SU-DHL-4 cells [2]): clear reduction of RTX-mediated cytotoxicity

Compound: C/C=C1\NC(=O)[C@H]2CSSCC/C=C/[C@H](CC(=O)N[C@H](C(C)C)C(=O)N2)OC(=O)[C@H](C(C)C)NC1=O [romidepsin]
- effect on CTTN acetylation (cortactin (CTTN)): no effect
- response of the phosphoproteome (HeLa cells [3]; after 16 hours): broad and potent response

Compound: O=C(CCCCCCC(=O)Nc1ccccc1)NO [vorinostat]
- effect on protein phosphorylation (HeLa cells [3]; within 4 hours): no noticeable effect

- pEC50 (SNRNP40): 7.30
- pEC50 (CBP and p300): 6.70 to 7.30
Compound: CNC(=O)Nc1ccc2c(c1)CC[C@@]21OC(=O)N(CC(=O)N(Cc2ccc(F)cc2)[C@@H](C)C(F)(F)F)C1=O [A485]
- number of downregulated acetylated peptides (HeLa cells [4]): 59
- impact on the phosphoproteome (HeLa cells [3]): did not have much impact

Compound: CC(=O)O[C@H]1C(=O)[C@@]2(C)[C@H]([C@H](OC(=O)c3ccccc3)[C@]3(O)C[C@H](OC(=O)[C@H](O)[C@@H](NC(=O)c4ccccc4)c4ccccc4)C(C)=C1C3(C)C)[C@]1(OC(C)=O)CO[C@@H]1C[C@@H]2O [paclitaxel]
- number of regulated phosphopeptides [5]: 7

Compound: Cn1cnc2c(F)c(Nc3ccc(Br)cc3Cl)c(C(=O)NOCCO)cc21 [selumetinib]
- ERK phosphorylation (A549 lung cancer cells): abrogated ERK phosphorylation
- phosphorylation of the AKT substrate BAD at S99 (A549 lung cancer cells): induced phosphorylation

Compound: O=C1/C(=C/c2ccccc2)C(NC2CCCCC2)c2ccccc21 (stereo not shown) [BCI]
- cell killing by the drug alone (SU-DHL-4 cells [1]): effective in killing cells

- pEC50 (AKT1S1): 7.96
- pEC50 (SHC1): 7.74
- pEC50 (SK-BR-3): 6.63
- pEC50 (BT-474): 6.80
- pEC50 (MDA-MB-175): 6.16
Compound: CS(=O)(=O)CCNCc1ccc(-c2ccc3ncnc(Nc4ccc(OCc5cccc(F)c5)c(Cl)c4)c3c2)o1 [Lapatinib]
- number of regulated phosphopeptides (BT-474 cells): hundreds
- number of regulated phosphopeptides (SK-BR-3 cells): five
- number of regulated phosphopeptides (MDA-MB-175 cells): hundreds

- pKd (ATR): 7.04
Compound: Cn1c(=O)n(-c2ccc(C(C)(C)C#N)cc2)c2c3cc(-c4cnc5ccccc5c4)ccc3ncc21 [Dactolisib]

Compound: C#Cc1cccc(Nc2ncnc3cc(OC)c(OCCCCCCC(=O)NO)cc23)c1 [CUDC-101]
- effect on CTTN acetylation (cortactin (CTTN)): only at substantially higher concentrations
- higher affinity for HDAC targets than for kinase targets in cells (HeLa cells [4]; acetylated vs phosphorylated peptides): 100 fold
- number of upregulated acetylated peptides (HeLa cells [4]; of the 1,133 measured acetylated peptides): 139

Compound: CN[C@@H]1C[C@H]2O[C@@](C)([C@@H]1OC)n1c3ccccc3c3c4c(c5c6ccccc6n2c5c31)C(=O)NC4 [staurosporine]
- number of regulated phosphopeptides (A549 lung cancer cells): ~2500

Compound: CC1(N)CCN(c2cnc(-c3cccc(Cl)c3Cl)c(N)n2)CC1 [SHP099]
- phosphorylation of the EGFR substrate GAB1 [6]: diminished in a dose-dependent fashion
- phosphorylation sites indicating EGFR activity [6]: does not inhibit

- pEC50 ([5]; Homo sapiens, K562, 0.5 h, read-out: EC50 of potently regulated phosphopeptides): > 7.00
Compound: Nc1ccn([C@@H]2O[C@H](CO)[C@@H](O)[C@@H]2O)c(=O)n1 [cytarabine]
- number of regulated phosphopeptides [5]: 23

Compound: RTX: antibody for treatment of B-cell malignancies targeting MS4A1 (CD20)
- downregulation of phosphorylation on the proliferation marker MKI67 (MKI67): > 10 x
- phosphoproteome response (SU-DHL-4 cells [7]): massive responses
- upregulation of phosphorylation of SYK (SYK): > 10 fold
- phosphoproteome response (ARH-77 cells): silent
- sensitivity in viability assay [8]: sensitive
- sensitivity in viability assay [9]: insensitive
- sensitivity in viability assay [10]: sensitive
- increase of RFTN1 phosphorylation at S467 (RFTN1; SU-DHL-4, within 2 min): 10 fold
- increase of RFTN1 phosphorylation at S467 (RFTN1; SU-DHL-4, within 5 min): 30 fold
- phosphoproteome response (Ramos cells): massive responses
